Reference: patent publication US20100190694A1, “Methods for identifying patients who will respond well to cancer treatment” (priority 2009, published 2010)
Values joined by “and” are separate entries in the source; they are usually repeats but may differ in a detail not shown here. Equal values may be shown once. Read-outs that look alike come from different tables or passages of the source. Marks after values point to notes of the source that are not given here.

Tests used:
[1] = tested on: diverse tumour cell lines; test: proliferation of diverse tumour cell lines; assay type: cell-based; settings: range over cell lines; read-out: IC50, blocks proliferation of diverse tumour cell lines
[2] = tested on: thymidylate synthase (TS); settings: HCT116 colon cancer cells, in vitro; cited from earlier work
[3] = tested on: dihydropyrimidine dehydrogenase (DPD); test: DPD mRNA by RTQ-PCR in tumor biopsies; assay type: in vivo, human
Method: (§1) DLTs, i.e. grade ¾ non-hematologic toxicities and grade 4 neutropenia or thrombocytopenia, were determined in cycles 1 and 2. Safety was assessed by NCI CTC (v. 3) and efficacy by RECIST criteria. Expression of TS, DPD, and p21 mRNA was measured by RTQ-PCR in PBMC (20 patients at baseline, and pre-dosing, 6 and 24-hours post-dosing, on days 1 and 4 in cycle 1) and in tumor biopsies (8 patients at baseline and once on days 4 or 5 in cycle 1). Results were expressed as gene expression relative to actin (i.e. TS/Actin Relative Gene Expression, DPD/Actin Relative Gene Expression, and p21/Actin Relative Gene Expression).

[4] = parameters: species or system human; settings: in vivo
Method: Cardiac safety was analyzed by extensive ECG monitoring (>3.000 ECG's assessed) in combination with PK assessments of Bel. Based on analyses by a central laboratory, the main findings (mean changes from baseline at the different dose-levels and for Bel alone and in combination with FU) were: • Heart rate, changes of −1 to +11 bpm, without outliers or any dose relationship. • PR duration, changes of −8 to +2 ms, without outliers or any dose relationship. • QRS duration, changes of −3 to +4 ms, without outliers or any dose relationship. • QTcF duration, changes of −4 to +18 ms, without any dose relationship. One outlier pat with a new QTcF value >500 ms was identified at dose-level 1000/750 (max post-infusion QTcF value 522 ms from pre-infusion value of 487 ms).
(§2) Phase I dose-escalation, multi-center study with the objectives to assess: • maximum tolerated dose and dose limiting toxicities (DLT) of Bel in combination with FU • impact of Bel on expression of TS, dihydropyrimidine dehydrogenase (DPD), and p21, in tumor and non-tumor surrogate tissue (peripheral blood mononuclear cells; PBMC) • preliminary anti-tumor activity of Bel in combination with FU • impact of Bel on ECG parameters • pharmacokinetics (PK) of Bel when given in combination with FU

[5] = tested on: thymidylate synthase (TS); test: TS mRNA by RTQ-PCR in PBMC; assay type: in vivo, human; settings: for TS maximum percentage change versus baseline: one value per patient
Method: as §1

tumour = test: xenograft models, tumour growth; settings: in vivo
[6] = tested on: dihydropyrimidine dehydrogenase (DPD); test: DPD mRNA by RTQ-PCR in PBMC; assay type: in vivo, human; settings: for DPD maximum percentage change versus baseline: one value per patient
Method: as §1

[7] = tested on: thymidylate synthase (TS); test: TS mRNA by RTQ-PCR in tumor biopsies; assay type: in vivo, human; settings: Bel monotherapy, Bel 1000 mg/m^2/day, patients with pre- and post-Bel samples
Method: as §1

[8] = Phase I study: pharmacokinetics of Bel; assay type: in vivo, human; settings: for half-life: read-out: T1/2, group mean (±SD) (converted)
Description: as §2
Treatment cycles of 21 days included Bel alone in cycle 1, and Bel in combination with FU in all subsequent cycles (FIG. 4). Treatment was to continue until significant treatment-related toxicity or progressive disease.

[9] = tested on: rapidly proliferating cells; test: cell cycle arrest and apoptosis; assay type: cell-based
[10] = tested on: TS, DPD, and p21 expression in PBMC; test: '2 out of 3' TS/DPD/p21 expression pattern in PBMC versus clinical outcome; assay type: in vivo, human
Description: Among the 20 patients where an attempt was made to analyze TS, DPD, and p21 in PBMC, 2 patients seemed to have a clearly favorable clinical outcome (patients 101-3 and 102-14 with treatment durations on Bel/FU of 8 and 14 cycles, respectively; see Tables 4 and 6), i.e. a 10% favorable outcome rate without selection.
If selection of patients for treatment with Bel/FU would have been done after an initial-dose of Bel and analyses of TS, DPD, and p21 expression in PBMC 6-hours post Bel dosing, the favorable outcome rate could have been increased to between 33% and 67% by selection of patients based on a “2 out of 3” positive expression pattern (positive assumed to be TS down-, DPD down-, and p21 up-regulation in comparison to a pre-treatment value).
Selection based on one single sample taken 6-hours post Bel dosing (Table A): 6 (30%; patients 101-3/5/6/7, 102-6/14) of the 20 patients have “2 out of 3” markers showing a favorable expression change after Bel dosing, and 2 (33%) of the 6 patients have clearly favorable clinical outcomes. Note, also patients 101-6 and 101-7 with a “2 out of 3” pattern, but not counted as having “clearly favorable clinical outcome” have longer than median treatment durations on Bel/FU (i.e. 4 cycles; see Table 4).
Selection based on mean of two samples taken 6-hours post Bel dosing (Table B): 3 (15%; patients 101-3, 102-6/14) of the 20 patients have “2 out of 3” markers showing a favorable expression change after Bel dosing, and 2 (67%) of the 3 patients have clearly favorable clinical outcomes.
as §1

p21 [11] = test: p21 mRNA by RTQ-PCR in PBMC; assay type: in vivo, human; settings: for P21 maximum percentage change versus baseline: one value per patient
Method: as §1

p21 [12] = test: p21 mRNA by RTQ-PCR in tumor biopsies; assay type: in vivo, human; settings: for patients with up-regulation of p21 in tumor tissue: Bel monotherapy, Bel 1000 mg/m^2/day
Method: as §1

[13] = patient tumor samples, cycle 1 day 4 or 5, Bel 1000 mg/m^2/day, one value per patient, listed as belinostat
[14] = PXD 600, one value per patient, listed as PXD
[15] = PXD 600, one value per patient, listed as PXD, with FU dose 250
[16] = PXD 600, one value per patient, listed as PXD, with FU dose 1000
[17] = PXD 1000, one value per patient, listed as PXD
[18] = PXD 1000, one value per patient, listed as PXD, with FU dose 250
[19] = PXD 1000, one value per patient, listed as PXD, with FU dose 1000
[20] = cycle 1, Belinostat Dose 300 mg/m^2/day
[21] = cycle 1, Belinostat Dose 600 mg/m^2/day
[22] = cycle 1, Belinostat Dose 1000 mg/m^2/day
[23] = PXD 1000, one value per patient, listed as PXD, with FU dose 500
[24] = belinostat 1000 mg/m^2/day alone, Cycle 2 Day 1, n = 14
[25] = belinostat 1000 mg/m^2/day in combination with FU, Cycle 2 Day 5, n = 13

O=C(/C=C/c1cccc(S(=O)(=O)Nc2ccccc2)c1)NO [PXD-101]
IC50 [1]: 0.08 to 2.43 µM
expression of thymidylate synthase (TS) [2]: reduce the expression
DPD expression change in tumor tissue ([3]; Bel monotherapy, Bel 1000 mg/m^2/day): minor changes
DPD Change vs baseline [3, 13]: ≈
max post-infusion QTcF value of the one outlier pat ([4]; human): 522 ms
effect on heart rate, AV conduction, cardiac depolarization, morphology or cardiac re-polarization [4]: no clear signal of any clinically relevant effect
6mean-TS, Change from baseline at 6 h based on mean of d1 + d4 ([5]; PXD 300, one value per patient): 410%
D1-6: TS, Change from baseline at 6 h day 1 ([5]; PXD 300, one value per patient): 486%
D1-6: TS, Change from baseline at 6 h day 1 [5, 14]: 62% and −87% and 144%
6mean-TS, Change from baseline at 6 h based on mean of d1 + d4 [5, 15]: 126% and 144%
6mean-TS, Change from baseline at 6 h based on mean of d1 + d4 [5, 16]: −65%
D1-6: TS, Change from baseline at 6 h day 1 [5, 17]: −51% and 63% and −21% and 88% and −14% and 274% and 238%
6mean-TS, Change from baseline at 6 h based on mean of d1 + d4 [5, 18]: −51% and 54% and 286% and 169% and 182%
6mean-TS, Change from baseline at 6 h based on mean of d1 + d4 [5, 19]: 51% and 142%
TS maximum percentage change versus baseline [5, 20]: 486%
TS maximum percentage change versus baseline [5, 21]: 190% and −87% * and 144%
TS maximum percentage change versus baseline [5, 22]: 238% and −51% * and 63% and 594% and 250% and 116% and 274% and −67% * and 214%
tumour growth in xenograft models (tumour): slows tumour growth
6mean-DPD, Change from baseline at 6 h based on mean of d1 + d4 ([6]; PXD 300, one value per patient): 131%
D1-6: DPD, Change from baseline at 6 h day 1 ([6]; PXD 300, one value per patient): 136%
D1-6: DPD, Change from baseline at 6 h day 1 [6, 14]: 30% and −87% and −56% and −13%
6mean-DPD, Change from baseline at 6 h based on mean of d1 + d4 [6, 15]: −22% and −37% and −13%
6mean-DPD, Change from baseline at 6 h based on mean of d1 + d4 [6, 16]: −59%
D1-6: DPD, Change from baseline at 6 h day 1 [6, 17]: −55% and −57% and 78% and −62% and −28% and 373% and 14% and 6% and 160% and −20% and 547%
6mean-DPD, Change from baseline at 6 h based on mean of d1 + d4 [6, 18]: −55% and 8% and 124% and −22% and 267% and 372%
6mean-DPD, Change from baseline at 6 h based on mean of d1 + d4 [6, 23]: 278% and 56%
6mean-DPD, Change from baseline at 6 h based on mean of d1 + d4 [6, 19]: 15% and 73% and −20%
DPD maximum percentage change versus baseline [6, 20]: 136%
DPD maximum percentage change versus baseline [6, 21]: −74% * and −87% * and −73% * and −13% *
DPD maximum percentage change versus baseline [6, 22]: 547% and 91% and 220% and 169% and −83% * and 563% and 373% and 98% and −60% * and 160% and −20% * and 62%
patients with TS down-regulated in tumor tissue ([7]; listed as Bel): 4 of 4
patients with TS down-regulated in tumor tissue ([7]; listed as belinostat): Four of 4
CL, group mean (±SD) [8, 24]: 37,580 (10,893) ml/hr/m^2
Vss, group mean (±SD) [8, 24]: 16,528 (4,918) ml/m^2
Vz, group mean (±SD) [8, 24]: 58,362 (26,136) ml/m^2
CL, group mean (±SD) [8, 25]: 30,141 (13,824) ml/hr/m^2
Vss, group mean (±SD) [8, 25]: 13,538 (7,253) ml/m^2
Vz, group mean (±SD) [8, 25]: 53,316 (29,753) ml/m^2
PK linearity ([8]; day 1 across all dose cohorts (n=22)): linear PK
half-life ([8]; human, in vivo, intravenous, 1000 mg/m2, belinostat 1000 mg/m^2/day alone, Cycle 2 Day 1, n = 14): 1 h
AUC(0-inf) ([8]; human, in vivo, intravenous, belinostat 1000 mg/m^2/day in combination with FU, Cycle 2 Day 5, n = 13, read-out: AUC0-∞, group mean (±SD)): 33300 ng·h/mL
AUC ([8]; human, in vivo, intravenous, belinostat 1000 mg/m^2/day in combination with FU, Cycle 2 Day 5, n = 13, read-out: AUCall, group mean (±SD)): 33200 ng·h/mL
Cmax ([8]; human, in vivo, intravenous, belinostat 1000 mg/m^2/day in combination with FU, Cycle 2 Day 5, n = 13, read-out: Cmax, group mean (±SD)): 49500 ng/mL
half-life ([8]; human, in vivo, intravenous, belinostat 1000 mg/m^2/day in combination with FU, Cycle 2 Day 5, n = 13): 1.2 h
cell cycle arrest and apoptosis [9]: causes cell cycle arrest and apoptosis
patients with '3 of 3 correct' marker pattern ([10]; 6 h, mean of d1 + d4): 2 pts
patients with '2 of 3 correct' marker pattern (down TS-down DPD-up p21) ([10]; 6 h, mean of d1 + d4, of 20 patients): 3 pts
patients with '3 of 3 correct' marker pattern ([10]; 6 h day 1): 2 pts
patients with '2 of 3 correct' marker pattern (down TS-down DPD-up p21) ([10]; 6 h day 1, of 20 patients): 6 pts
6mean-p21, Change from baseline at 6 h based on mean of d1 + d4 (p21 [11]; PXD 300, one value per patient): 41%
D1-6: p21, Change from baseline at 6 h day 1 (p21 [11]; PXD 300, one value per patient): 35%
D1-6: p21, Change from baseline at 6 h day 1 (p21 [11]; [14]): −9% and 31% and −48%
6mean-p21, Change from baseline at 6 h based on mean of d1 + d4 (p21 [11]; [15]): −16% and −55%
6mean-p21, Change from baseline at 6 h based on mean of d1 + d4 (p21 [11]; [16]): 15%
D1-6: p21, Change from baseline at 6 h day 1 (p21 [11]; [17]): 272% and −54% and 115% and −25% and 16% and 43% and 21% and 13% and −11% and 74% and 68%
6mean-p21, Change from baseline at 6 h based on mean of d1 + d4 (p21 [11]; [18]): 272% and −55% and 155% and −17% and 44% and 32%
6mean-p21, Change from baseline at 6 h based on mean of d1 + d4 (p21 [11]; [23]): 21% and −25%
6mean-p21, Change from baseline at 6 h based on mean of d1 + d4 (p21 [11]; [19]): −35% and 23% and 74%
P21 maximum percentage change versus baseline (p21 [11]; [20]): 48% *
P21 maximum percentage change versus baseline (p21 [11]; [21]): 43% * and 88% * and −86%
P21 maximum percentage change versus baseline (p21 [11]; [22]): 68% * and 972% * and −72% and 715% * and 62% * and 156% * and 43% * and −71% and −83% and −86% and 74% * and −47%
patients with up-regulation of p21 in tumor tissue (p21 [12]; listed as Bel): Three of 4
patients with up-regulation of p21 in tumor tissue (p21 [12]; listed as belinostat): 3 of the 4
p21 Change vs baseline (p21 [12]; [13]): ≈
